From PubChem BioAssay (NCI)
“And” between values parts separate entries of the source, which are not always exact repeats. Equal entries are not always repeated.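 All cell lines were grown in 96-well plates and treated with compound for 48 hours. GI50 marks 50% less growth. At the TGI there is no net growth.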

What was measured:
Test in all cases: inhibition of tumour cell growth, NCI panel, 48 h
[1] = tested on: DMS 114 small cell lung
[2] = tested on: DMS 273 small cell lung
[3] = tested on: KM20L2 colon
[4] = tested on: M19-MEL melanoma
[5] = tested on: SNB-78 CNS
[6] = tested on: XF 498 CNS
[7] = tested on: HS 578T breast
[8] = tested on: MDA-MB-435
[9] = tested on: NCI/ADR-RES ovarian
[10] = tested on: BT-549 breast
[11] = tested on: MCF7 breast

| Compound | TGI [1] | TGI [2] [µM] | TGI [3] | TGI [4] [µM] | TGI [5] [µM] | TGI [6] | other results |
| --- | --- | --- | --- | --- | --- | --- | --- |
| CC(=O)NC1=C(C)C(=O)c2c(nc3n2CCC3O)C1=N (centres undefined) | 13.4 µM | 33.2 | 36.9 µM | 4.94 | 8.56 | 9.04 µM |  |
| CC(C)C1CC(O)O[C@@H]([C@@H](C)[C@H]2CC(=O)[C@@H]3[C@@H]4[C@@H](O)[C@H](O)[C@H]5[C@@H](O)[C@H](O)CC[C@]5(C)[C@H]4CC[C@]23C)C1 (some centres undefined) |  | > 100 | > 100 µM | > 100 | > 100 | 56 µM |  |
| CC1=C(O)C(=O)C2C(=O)C1C(C)C2c1ccc(Cl)cc1 (centres undefined) |  | > 100 |  | > 100 | > 100 | > 100 µM |  |
| NC(=O)N1N=C2c3ccccc3SC[C@H]2[C@@H]1c1ccccc1 | 79.9 µM |  | 39.8 µM | > 100 | 93.3 | 56.8 µM |  |
| O=C(CSC(=S)N1CCOCC1)Nc1nc2c(s1)CCCC2 | > 100 µM | > 100 | > 100 µM | > 100 | > 100 | > 100 µM |  |
| CC/C=C\C/C=C\C/C=C\CCCCCCCC(=O)OCC | > 100 µM |  | > 100 µM | > 100 |  | > 100 µM |  |
| CC1C(=O)C(C)C(c2ccccc2)N(N=O)C1c1ccccc1 (centres undefined) |  | > 1000 | > 1000 µM | > 1000 | > 766 | 73.8 µM and 214 µM | GI50 [7]: 28.6 µM; TGI [7]: 186 µM; GI50 [4]: > 1000 µM; TGI [8]: 346 µM; TGI [9]: 867 µM; GI50 [5]: 220 µM; GI50 [6]: 53.2 µM |
| COc1ccc(NC(=O)c2cc(OC)c(OC)c(OC)c2)cc1 | > 100 µM | > 100 | > 100 µM | > 100 | > 100 | > 100 µM |  |
| CCC12CCCC(=O)N1C(CO)C(c1ccccc1)O2 (centres undefined) | > 100 µM | > 100 | > 100 µM | > 100 | > 100 | > 100 µM |  |
| COc1cc(CNc2ccc(C(C)C)cc2)cc(OC)c1OC | 48.7 µM | 26.3 | 38.8 µM | 39 | > 100 | 59 µM | GI50 [2]: 13 µM |
| CCOC(=O)NN1C(=O)C(=P(c2ccccc2)(c2ccccc2)c2ccccc2)C(C(=O)OCC)=C1C |  | > 100 | > 100 µM | > 100 | > 100 | > 100 µM |  |
| N[C@H](C(=O)O)[C@H](Cl)CC(=O)O | > 100 µM | > 100 | > 100 µM | > 100 | > 100 | > 100 µM |  |
| CC(=O)Oc1ccc(O)c(O)c1C/C=C(\C)CC/C=C(\C)CC/C=C(\C)CCC=C(C)C | 1.29 µM | 0.817 | 3.74 µM | 1.81 | 1.34 | 0.818 µM |  |
| Cc1cccc(C(C)C)c1NC(=O)C(=O)CC(=O)c1c(C)n([O-])c2ccccc2[n+]1=O | 52.1 µM | 99.2 | > 100 µM | 50.6 | > 100 |  |  |
| O=C(CN1CCN(c2ccccc2)CC1)N1CCc2c([nH]c3ccccc23)C1c1cccnc1 (centres undefined) | > 65 µM | > 100 | > 100 µM | > 100 | > 100 | 71.8 µM |  |
| COc1ccc2oc3cccc(NCCN(C)C)c3c(=O)c2c1 | 27 µM | 25.3 | 22 µM | 29.9 | 36 | 28 µM |  |
| CN=S(=O)(c1ccccc1)c1ccccc1 | > 100 µM | > 100 | > 100 µM | > 100 | > 100 | > 100 µM |  |

| Compound | TGI [1] | TGI [2] [µM] | TGI [3] | TGI [4] [µM] | TGI [5] [µM] | TGI [6] | other results |
| --- | --- | --- | --- | --- | --- | --- | --- |
| S=c1[nH]c2ccc(Br)cc2c(=S)n1-c1ccccc1 | 54.3 µM | 60.7 | > 100 µM | 60.7 | > 100 | 36.6 µM |  |
| CCOC(=O)C(=O)Nc1c(C)cccc1C | > 100 µM | > 100 | > 100 µM | > 100 | > 100 | > 100 µM |  |
| N#CC(C(=O)C(=O)NCCCNC(=O)C(=O)C(C#N)c1ccccc1)c1ccccc1 (centres undefined) | > 100 µM | > 100 | > 100 µM | > 100 | > 100 |  |  |
| CC1S(=O)(=O)OCCOS1(=O)=O | > 100 µM | > 100 | > 100 µM | > 100 | > 100 |  |  |
| OCCCCCCOc1ccc(-c2cc(-c3ccccn3)nc(-c3ccccn3)c2)cc1 | 1.48 µM | 0.978 |  | 1.25 | 10.9 | 5.32 µM | TGI [10]: 9.21 µM; TGI [7]: 4.61 µM; TGI [8]: > 100 µM |
| COc1nc2nccc-2c2occn12 | > 100 µM | > 100 | > 100 µM | > 100 | > 100 | > 100 µM |  |
| Cc1cc(=O)oc2cc3c(cc12)Oc1ccccc1O3 | > 100 µM | > 100 | > 100 µM | > 100 | > 100 | > 10 µM |  |
| O=C(O)c1cc(=O)c2[nH]c3ccccc3c2s1 | > 100 µM |  | > 100 µM | > 100 | > 100 | > 100 µM |  |
| Cn1nc(-c2ccccc2)c(C(=O)/C=C/c2ccccc2)c(N2CCOCC2)c1=O | 38.2 µM | 51.4 | 42.9 µM | 61.2 |  | 30.7 µM |  |
| CCOc1ccc(NCc2cc(OC)c(OC)c(OC)c2)cc1 | 3.17 µM and 20 µM | > 100 | 1.79 µM and 3.09 µM |  | > 100 | > 95.6 µM and 62 µM | TGI [10]: > 100 µM; GI50 [2]: 0.296 µM and 0.821 µM; GI50 [7]: 0.823 µM; TGI [7]: > 100 µM; TGI [11]: > 100 µM; GI50 [8]: 0.0789 µM and 0.0919 µM; TGI [8]: > 100 µM; GI50 [9]: 0.569 µM; TGI [9]: > 100 µM; GI50 [6]: 9.37 µM and 3 µM |
| COc1ccc(C(C#N)NNc2nc(C)cc(=O)[nH]2)cc1OC (centres undefined) | > 100 µM | > 100 | > 100 µM | > 100 | > 100 |  |  |
| CCCCCCCCCCCCCCCCCCCCCC(=O)Nc1ccn(C2OC(CO)C(O)C2O)c(=O)n1 (centres undefined) | > 43.2 µM | > 100 | > 100 µM | > 100 | > 100 | > 100 µM |  |
| COc1cc([C@@H]2c3cc4c(cc3[C@@H](NC(=O)c3ccccc3)C3COC(=O)[C@@H]32)OCO4)cc(OC)c1O (some centres undefined) | 21.4 µM | 13.7 | 12.8 µM | 24.7 | > 100 |  |  |
| CCCCCCCCCCCCCCCC(=O)OCC1OC(n2c(O)c(N=NC(N)=S)c3ccc([N+](=O)[O-])cc32)C(OC(C)=O)C1OC(C)=O (centres undefined) | > 100 µM | > 100 | > 100 µM | > 100 | > 100 | > 100 µM |  |
| CC(C)CC1=[N+]=C(NC#N)N=C(CCC(=O)Nc2ccccc2[N+](=O)[O-])C1 | > 100 µM |  | > 100 µM | > 100 |  | > 100 µM |  |
| CC(=O)n1c2ccccc2c2nc3nc(Oc4ccc(C)cc4)c4ccccc4c3cc21 | > 100 µM | > 100 | > 100 µM | > 100 | > 100 |  |  |
